Literature values as cited in patent US20230043979A1, “PHOSPHODIESTERASE-4 INHIBITOR COMBINATIONS, METHODS OF MAKING, AND METHODS OF USE THEREOF” (VK RESEARCH ASSOCIATES INC., priority 2021, published 2023).

Conditions: for Median plasma/elimination Half-life (T1/2): Table 1, PDE4 inhibitors, in h; for half-life / median time to maximum concentration: oral administration

SMILES	Median plasma/elimination Half-life (T1/2)	half-life	median time to maximum concentration
CC(C)C(=O)c1c(C(C)C)nn2ccccc12 [Ibudilast]	19	–	–
O=C(Nc1c(Cl)cncc1Cl)c1ccc(OC(F)F)c(OCC2CC2)c1 [Roflumilast]	17 - 30	17 to 30 h	1 to 2 h
COc1ccc([C@]2(C#N)CC[C@@H](C(=O)O)CC2)cc1OC1CCCC1 [Cilomilast]	7	–	–
CCOc1cc([C@@H](CS(C)(=O)=O)N2C(=O)c3cccc(NC(C)=O)c3C2=O)ccc1OC [Apremilast]	6 to 9	–	–
N#Cc1ccc(Oc2ccc3c(c2)COB3O)cc1 [Crisaborole]	11.9 ± 8.3	–	–
COc1ccc(C2CNC(=O)C2)cc1OC1CCCC1 (stereo not shown) [Rolipram]	3	about 3 hours	about 30 minutes
